Experimental data reported in patent US12370235B2, “Synthetic, non-natural antimicrobial peptides inspired by Staphylococcus auricularis delta toxin” (University of Saskatchewan, priority 2021, dated 2025).
Ends that are not written are not given here.

Tests used:
[1] = system: S. aureus ATCC 29213; assay: MIC, broth dilution; format: cell-based, Staphylococcus aureus; settings: Table 5; STIP3 variants, highest concentration 100 μg/mL
Summary of the method: (§1)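 Peptides (95% purity) were serially diluted 2-fold and mixed with bacteria diluted to OD 6×10^−4 in cation-adjusted Mueller Hinton broth. Standing cultures were incubated overnight at 37° C. MIC was the lowest peptide concentration with no observed growth.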

[2] = system: S. aureus ATCC 33592 (MRSA SCCmec type III); assay: MIC, broth dilution; format: cell-based, Staphylococcus aureus; settings: Table 5; STIP3 variants, highest concentration 100 μg/mL
Summary of the method: as §1

[3] = system: S. aureus ATCC BAA-1683 (MRSA SCCmec type IV); assay: MIC, broth dilution; format: cell-based, Staphylococcus aureus; settings: Table 5; STIP3 variants, highest concentration 100 μg/mL
Summary of the method: as §1

[4] = system: S. aureus ATCC BAA-2094 (MRSA SCCmec type V); assay: MIC, broth dilution; format: cell-based, Staphylococcus aureus; settings: Table 5; STIP3 variants, highest concentration 100 μg/mL
Summary of the method: as §1

[5] = system: S. aureus ATCC BAA-2313 (MRSA SCCmec type XI); assay: MIC, broth dilution; format: cell-based, Staphylococcus aureus; settings: Table 5; STIP3 variants, highest concentration 100 μg/mL
Summary of the method: as §1

[6] = system: S. aureus ATCC BAA-41 (MRSA SCCmec type II); assay: MIC, broth dilution; format: cell-based, Staphylococcus aureus; settings: Table 5; STIP3 variants, highest concentration 100 μg/mL
Summary of the method: as §1

[7] = system: S. aureus ATCC BAA-42 (MRSA SCCmec type VI); assay: MIC, broth dilution; format: cell-based, Staphylococcus aureus; settings: Table 5; STIP3 variants, highest concentration 100 μg/mL
Summary of the method: as §1

[8] = system: S. aureus ATCC BAA-44 (MRSA SCCmec type I); assay: MIC, broth dilution; format: cell-based, Staphylococcus aureus; settings: Table 5; STIP3 variants, highest concentration 100 μg/mL
Summary of the method: as §1

[9] = system: Mannheimia haemolytica ATCC 33393; assay: MIC, broth dilution; format: cell-based; settings: Table 11; highest concentration 25 μg/mL
Summary of the method: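 Peptides (95% purity) in 2-fold dilution series were mixed with M. haemolytica diluted to OD 6×10^−4 in cation-adjusted Mueller Hinton broth and incubated standing overnight at 37 °C. MIC was the lowest concentration with no visible growth.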

[10] = system: C. albicans MYA-2876; assay: MIC, YPD broth; format: cell-based, Candida albicans; settings: Table 8
Summary of the method: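 Minimum inhibitory concentrations against Candida albicans were determined in YPD broth (10 g/L yeast extract, 20 g/L peptone, 20 g/L dextrose) using peptides of 95% purity. A 180 μl volume of diluted yeast was combined with 20 μl of peptide in a 2-fold dilution series in 96-well plates, with sterile water as control, then incubated standing overnight at 37° C.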

[11] = system: C. albicans Y537; assay: MIC, YPD broth; format: cell-based, Candida albicans; settings: Table 8
[12] = system: Candida duobushaemulonii AR 391; assay: MIC, YPD broth, CDC and FDA AR Candida isolate panel; format: cell-based
Summary of the method: (§2)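 Each isolate was diluted to an optical density of […] and combined with peptide at twofold stepwise concentrations. Plates then sat unshaken overnight at 37° C. Sterile water replaced peptide in control wells.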

[13] = system: Candida duobushaemulonii AR 392; assay: as above; format: cell-based
Summary of the method: as §2

[14] = system: Candida duobushaemulonii AR 394; assay: as above; format: cell-based
Summary of the method: as §2

[15] = system: Candida haemulonii AR 393; assay: as above; format: cell-based
Summary of the method: as §2

[16] = system: Candida krusei AR 397; assay: as above; format: cell-based
Summary of the method: as §2

[17] = system: Candida lusitaniae AR 398; assay: as above; format: cell-based
Summary of the method: as §2

[18] = system: Kodamae ohmeri AR 396; assay: as above; format: cell-based
Summary of the method: as §2

[19] = system: Saccharomyces cerevisiae AR 399; assay: as above; format: cell-based
Summary of the method: as §2

[20] = system: Saccharomyces cerevisiae AR 400; assay: as above; format: cell-based
Summary of the method: as §2

[21] = system: Candida haemulonii AR 395; assay: as above; format: cell-based; settings: Table 9 below the line: only 200 or 100 μg/mL tested; values reported as 100 are ≤100 μg/mL
Summary of the method: as §2

[22] = Table 9 top part: titrations from 1.56 to 100 μg/mL
[23] = Table 9 below the line: only 200 or 100 μg/mL tested, values reported as 100 are ≤100 μg/mL

Row | Substance | MIC S. aureus ATCC 29213 [1] | MIC S. aureus ATCC 33592 (III) [2] | MIC S. aureus ATCC BAA 1683 (IV) [3] | MIC S. aureus ATCC BAA 2094 (V) [4] | MIC S. aureus ATCC BAA 2313 (XI) [5] | MIC S. aureus ATCC BAA 41 (II) [6] | MIC S. aureus ATCC BAA 42 (VI) [7] | MIC S. aureus ATCC BAA 44 (I) [8] | MIC (μg/mL) M. haemolytica [9] | MIC C. albicans MYA-2876 [10] [µg/mL] | MIC (μg/mL) Candida duobushaemulonii AR 391 [12, 23] | MIC (μg/mL) Candida duobushaemulonii AR 392 [13, 23] | MIC (μg/mL) Candida duobushaemulonii AR 394 [14, 23] | MIC (μg/mL) Candida haemulonii AR 393 [15, 23] | MIC (μg/mL) Candida haemulonii AR 395 [21] | MIC (μg/mL) Candida krusei AR 397 [16, 23] [µg/mL] | MIC (μg/mL) Candida lusitaniae AR 398 [17, 23] [µg/mL] | MIC (μg/mL) Kodamae ohmeri AR 396 [18, 23] | MIC (μg/mL) Saccharomyces cerevisiae AR 399 [19, 23] [µg/mL] | MIC (μg/mL) Saccharomyces cerevisiae AR 400 [20, 23] [µg/mL] | also measured
1 | TVKGLVKWILNVVKKFA-NH2 [STIP3-30, TVKGLVKWILNVVKKFA-NH2] | 12.5 µg/mL | 12.5 µg/mL | 12.5 µg/mL | 25 µg/mL | 25 µg/mL | 25 µg/mL | 25 µg/mL | 12.5 µg/mL | 12.5 µg/mL | 25 | – | – | – | – | – | – | – | – | – | – | MIC C. albicans Y537 [11]: 50 µg/mL; MIC (μg/mL) Candida duobushaemulonii AR 391 [12, 22]: 12.5 µg/mL; MIC (μg/mL) Candida duobushaemulonii AR 392 [13, 22]: 25 µg/mL; MIC (μg/mL) Candida duobushaemulonii AR 394 [14, 22]: 25 µg/mL; MIC (μg/mL) Candida haemulonii AR 393 [15, 22]: 100 µg/mL; MIC (μg/mL) Candida krusei AR 397 [16, 22]: 12.5 µg/mL; MIC (μg/mL) Candida lusitaniae AR 398 [17, 22]: 6.25 µg/mL; MIC (μg/mL) Kodamae ohmeri AR 396 [18, 22]: 25 µg/mL; MIC (μg/mL) Saccharomyces cerevisiae AR 399 [19, 22]: 25 µg/mL; MIC (μg/mL) Saccharomyces cerevisiae AR 400 [20, 22]: 12.5 µg/mL
2 | TVDGLVKWILATVKKFA [STIP3-17, TVDGLVKWILATVKKFA] | > (no inhibition was observed at the highest concentration of peptide tested: 100 μg/mL for the STIP3 variants) | > (no inhibition was observed at the highest concentration of peptide tested: 100 μg/mL for the STIP3 variants) | > (no inhibition was observed at the highest concentration of peptide tested: 100 μg/mL for the STIP3 variants) | > (no inhibition was observed at the highest concentration of peptide tested: 100 μg/mL for the STIP3 variants) | > (no inhibition was observed at the highest concentration of peptide tested: 100 μg/mL for the STIP3 variants) | > (no inhibition was observed at the highest concentration of peptide tested: 100 μg/mL for the STIP3 variants) | > (no inhibition was observed at the highest concentration of peptide tested: 100 μg/mL for the STIP3 variants) | > (no inhibition was observed at the highest concentration of peptide tested: 100 μg/mL for the STIP3 variants) | > (> symbol indicates that no inhibition was observed at the highest concentration of peptide tested: 25 μg/mL) | 12.5 | > (values below the line were determined using two concentrations of peptide 200 or 100 μg/mL) | > (values below the line were determined using two concentrations of peptide 200 or 100 μg/mL) | > (values below the line were determined using two concentrations of peptide 200 or 100 μg/mL) | > (values below the line were determined using two concentrations of peptide 200 or 100 μg/mL) | > (values below the line were determined using two concentrations of peptide 200 or 100 μg/mL) | ≤ 100 | ≤ 100 | > (values below the line were determined using two concentrations of peptide 200 or 100 μg/mL) | ≤ 100 | ≤ 100 | –
3 | TVGGLVKWILDTVKKFW [STIP3-6, TVGGLVKWILDTVKKFW] | 12.5 µg/mL | 12.5 µg/mL | 12.5 µg/mL | 12.5 µg/mL | 12.5 µg/mL | 12.5 µg/mL | 12.5 µg/mL | 25 µg/mL | 25 µg/mL | 50 | > (values below the line were determined using two concentrations of peptide 200 or 100 μg/mL) | > (values below the line were determined using two concentrations of peptide 200 or 100 μg/mL) | > (values below the line were determined using two concentrations of peptide 200 or 100 μg/mL) | > (values below the line were determined using two concentrations of peptide 200 or 100 μg/mL) | > (values below the line were determined using two concentrations of peptide 200 or 100 μg/mL) | ≤ 100 | ≤ 100 | > (values below the line were determined using two concentrations of peptide 200 or 100 μg/mL) | ≤ 100 | ≤ 100 | –
